From ChEMBL document CHEMBL5523727, “Discovery of KT-413, a Targeted Protein Degrader of IRAK4 and IMiD Substrates Targeting MYD88 Mutant Diffuse Large B-Cell Lymphoma” (J Med Chem, 2024) come the findings set out here.

Molecules are shown by their SMILES.

Data set [1] can be described thus: Drug exposure in Non human primate administered as iv dose. The format is ADME, organism-based. The settings on record: primates, in vivo.
Another data set deals with Protein cereblon (Homo sapiens, UniProt Q96SW2). Description: Binding affinity to CRBN (unknown origin) by HTRF assay.
Chain of Protein cereblon (Q96SW2 whole entry): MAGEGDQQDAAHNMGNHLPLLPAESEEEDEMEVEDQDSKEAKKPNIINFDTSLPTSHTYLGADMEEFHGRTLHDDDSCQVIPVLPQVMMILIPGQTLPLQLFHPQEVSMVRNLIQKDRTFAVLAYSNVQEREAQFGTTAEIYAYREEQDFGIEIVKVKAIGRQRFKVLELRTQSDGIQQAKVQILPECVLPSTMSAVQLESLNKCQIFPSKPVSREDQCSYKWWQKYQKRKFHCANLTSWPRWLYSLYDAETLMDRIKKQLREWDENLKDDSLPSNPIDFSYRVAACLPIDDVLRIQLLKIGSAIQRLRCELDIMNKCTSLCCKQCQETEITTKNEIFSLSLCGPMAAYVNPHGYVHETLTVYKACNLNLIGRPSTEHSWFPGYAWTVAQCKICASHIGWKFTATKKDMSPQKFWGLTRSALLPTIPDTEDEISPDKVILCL
In data set [2] the target is T1, Protein cereblon/Interleukin-1 receptor-associated kinase 4 (Homo sapiens, UniProt Q9NWZ3+Q96SW2). Briefly: PROTAC activity at CRBN/IRAK4 in human OCI-Ly10 cells assessed as induction of IRAK4 degradation measured after 24 hrs by MSD assay. The format is cell-based.
Target sequence in this assay (Q9NWZ3 whole entry): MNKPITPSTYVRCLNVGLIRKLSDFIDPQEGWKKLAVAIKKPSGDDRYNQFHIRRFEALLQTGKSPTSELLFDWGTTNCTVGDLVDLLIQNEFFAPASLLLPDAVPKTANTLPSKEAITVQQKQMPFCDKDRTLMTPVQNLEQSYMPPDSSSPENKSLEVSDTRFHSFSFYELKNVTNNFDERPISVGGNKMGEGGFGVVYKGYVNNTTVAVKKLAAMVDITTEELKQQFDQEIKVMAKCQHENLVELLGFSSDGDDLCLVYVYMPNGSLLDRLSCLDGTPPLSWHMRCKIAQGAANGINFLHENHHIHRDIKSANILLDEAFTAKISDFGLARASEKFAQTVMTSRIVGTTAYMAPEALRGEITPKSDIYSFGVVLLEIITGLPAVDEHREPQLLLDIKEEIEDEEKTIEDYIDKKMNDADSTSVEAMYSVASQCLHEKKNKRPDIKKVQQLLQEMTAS
Target sequence in this assay (Q96SW2 whole entry): as the sequence (Q96SW2 whole entry) above
Data set [3] is described as follows: Half life in rat plasma. The format is ADME, cell-free.
Data set [4] in a line: Half life in human plasma. The format is ADME, cell-free.
A short description of data set [5]: Drug exposure in rat administered as iv bolus dose. The settings on record: in vivo. The format is ADME, organism-based.
The nature of data set [6]: Half life in dog plasma. It counts as ADME, cell-free, Canis lupus familiaris.
The target in data set [7] is T2, Cereblon/Ikaros (Homo sapiens, UniProt Q96SW2+Q13422). Briefly: PROTAC activity at CRBN/Ikaros in human OCI-Ly10 cells assessed as induction of Ikaros degradation measured after 24 hrs by MSD assay. The format is cell-based.
T2 sequence (Q96SW2 whole entry): as above
T2 sequence (Q13422 whole entry): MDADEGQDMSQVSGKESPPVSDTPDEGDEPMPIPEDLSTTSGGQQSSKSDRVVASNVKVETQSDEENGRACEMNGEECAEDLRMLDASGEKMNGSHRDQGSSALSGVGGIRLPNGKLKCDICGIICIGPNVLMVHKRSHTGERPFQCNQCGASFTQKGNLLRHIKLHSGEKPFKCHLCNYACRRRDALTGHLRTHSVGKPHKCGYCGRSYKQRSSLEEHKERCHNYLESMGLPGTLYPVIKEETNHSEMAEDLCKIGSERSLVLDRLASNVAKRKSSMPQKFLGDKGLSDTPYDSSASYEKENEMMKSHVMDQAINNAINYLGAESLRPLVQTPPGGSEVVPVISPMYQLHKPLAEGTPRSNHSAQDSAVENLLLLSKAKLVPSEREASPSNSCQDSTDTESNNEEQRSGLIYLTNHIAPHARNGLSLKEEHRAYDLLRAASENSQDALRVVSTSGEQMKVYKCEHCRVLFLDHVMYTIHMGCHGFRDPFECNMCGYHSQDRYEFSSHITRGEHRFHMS
The nature of data set [8]: Half life in Non human primate plasma. The format is ADME, cell-free. Particulars: primates.
The nature of data set [9]: Half life in rat at 2 mg/kg, iv by LC-MS/MS analysis. Particulars: in vivo. It counts as ADME, organism-based.
A short description of data set [10]: Passive permeability of the compound in wild type MDCK cells across apical to basolateral side at 1 uM measured for 120 mins by LC-MS/MS analysis. It counts as ADME, cell-based, Canis lupus familiaris. Particulars: dog, read-out: permeability.
A short description of data set [11]: Oral bioavailability in rat at 5 mg/kg by LC-MS/MS analysis. It counts as ADME, organism-based. Particulars: in vivo.
Data set [12] is described as follows: Metabolic stability in rat liver microsomes assessed as intrinsic clearance at 1 uM measured upto 60 mins in presence of NADPH by UPLC/MS-MS analysis. Particulars: read-out: CLH. It counts as ADME, Microsome.
The nature of data set [13]: Volume of distribution at steady state in rat at 2 mg/kg, iv by LC-MS/MS analysis. The format is ADME, organism-based. Particulars: in vivo, read-out: Vdss.
The nature of data set [14]: Clearance in rat at 2 mg/kg, iv by LC-MS/MS analysis. The format is ADME, organism-based. The settings on record: in vivo.
A short description of data set [15]: AUC in rat at 5 mg/kg, po by LC-MS/MS analysis. The format is ADME, organism-based. Particulars: in vivo.
Another data set has as its system OCI-Ly10. Briefly: Antiproliferative activity against human OCI-Ly10 cells measured after 4 days by CellTiter-Glo Luminescent Cell Viability Assay. It counts as functional, cell-based. Particulars: Homo sapiens, OCI-Ly10, 96 h.
Data set [16] is described as follows: Metabolic stability in human liver microsomes assessed as intrinsic clearance at 1 uM measured upto 60 mins in presence of NADPH by UPLC/MS-MS analysis. It counts as ADME, Microsome. The settings on record: read-out: CLH.
In data set [17] the target is T2, Cereblon/Ikaros. Briefly: PROTAC activity at CRBN/Ikaros in human OCI-Ly10 cells assessed as induction of Ikaros degradation measured after 6 hrs by MSD assay relative to control. The format is cell-based.
Data set [18] addresses Protein cereblon/Interleukin-1 receptor-associated kinase 4 (Homo sapiens, UniProt Q96SW2+Q9NWZ3). Briefly: Binding affinity to CRBN/IRAK4 […] assessed as dissociation constant by DiscoverX Kd Elect assay.
Data set [19] is described as follows: Oral bioavailability in rat at 3 mg/kg by LC-MS/MS analysis. The format is ADME, organism-based. The settings on record: in vivo.
Data set [20] deals with T1, Protein cereblon/Interleukin-1 receptor-associated kinase 4. Description: PROTAC activity at CRBN/IRAK4 in human OCI-Ly10 cells assessed as induction of IRAK4 degradation measured after 24 hrs by MSD assay relative to control. The format is cell-based.
Target sequence in this assay (Q96SW2 whole entry, looked up): as the sequence (Q96SW2 whole entry) above
Target sequence in this assay (Q9NWZ3 whole entry, looked up): as the sequence (Q9NWZ3 whole entry) above
Data set [21] in a line: AUC in rat at 3 mg/kg, po by LC-MS/MS analysis. It counts as ADME, organism-based. The settings on record: in vivo.

Chain of Protein cereblon/Interleukin-1 receptor-associated kinase 4 (Homo sapiens, UniProt Q96SW2+Q9NWZ3) (Q9NWZ3 whole entry): as above
Chain of Protein cereblon/Interleukin-1 receptor-associated kinase 4 (Homo sapiens, UniProt Q96SW2+Q9NWZ3) (Q96SW2 whole entry): as the sequence (Q96SW2 whole entry) above

Consider `CC(C)(O)c1cc2nc([C@H]3CC[C@H](CN4CC5(CC(CCNc6cccc7c6C(=O)N([C@@H]6CCC(=O)NC6=O)C7=O)C5)C4)CC3)sc2cc1NC(=O)c1cccc(C(F)(F)F)n1`, for which the figures for the Drug uptake in data set [1] and in data set [5] were 30% and 48%, respectively. Besides, the 50% inhibitory concentration (IC50) at Protein cereblon stood at 110 nM. Moreover, the DC50 in data set [2] was 19 nM; at Cereblon/Ikaros [7], 9 nM. Moreover, the half-life in data set [3] was 2.38 h; in data set [4] it was 2.92 h; in data set [6], 3.07 h; in data set [8] it was 3.03 h.
Turning to `COc1cc2nc([C@H]3CC[C@H](CN4CC5(CC(CCNc6cccc7c6C(=O)N(C6CCC(=O)NC6=O)C7=O)C5)C4)CC3)sc2cc1NC(=O)c1cccc(C(F)(F)F)n1` (stereo partly drawn), the half-life in data set [9] is 24 h. Moreover, in data set [10], the Papp A→B at 2 h, 1 µM worked out at 0.18 ×10⁻⁶ cm/s. Further, the DC50 in [2] turned out to be 35 nM; on Cereblon/Ikaros [7], 14 nM. For the same compound, in data set [11], the bioavailability worked out at 23%. For the same compound, the microsomal CLint at 1 µM in data set [12] is 1 µL/min/mg; in [16], 1.5 µL/min/mg. For the same compound, the Vd in data set [13] was determined as 9.7 L/kg. Besides, in [14], the clearance turned out to be 4.8 mL/min/kg. For the same compound, the AUC in data set [15] was 2.5 µM·h. This compound also registered a half-maximal inhibitory concentration (IC50) in the data set on OCI-Ly10 of 72 nM.
`CC(C)(O)c1cc2nn([C@H]3CC[C@H](CN4CCC5(CC4)CC(CNc4cccc6c4C(=O)N(C4CCC(=O)NC4=O)C6=O)C5)CC3)cc2cc1NC(=O)c1cccc(C(F)(F)F)n1` (stereo partly drawn) showed a half-life in [9] of 11 h. Moreover, the half-inhibitory concentration (IC50) at Protein cereblon is 44 nM; in the data set on OCI-Ly10 it was 8 nM. Besides, the Papp A→B at 2 h, 1 µM in [10] worked out at 2.2 ×10⁻⁶ cm/s. In addition, the DC50 (in [2]; at Cereblon/Ikaros [7]) was 6 nM in each case. Besides, the bioavailability in data set [11] was determined as 1%. The figures for the microsomal CLint at 1 µM in [12] and in data set [16] were 2.1 µL/min/mg and 2.8 µL/min/mg, respectively. The Vd in data set [13] stood at 13 L/kg. This compound also had a clearance in data set [14] of 15 mL/min/kg. Moreover, in data set [15], the exposure (AUC) amounted to 0.06 µM·h.
For the compound `CN(CCCCc1cccc2c1C(=O)N(C1CCC(=O)NC1=O)C2=O)C[C@H]1CC[C@H](n2cc3cc(NC(=O)c4cccc(C(F)(F)F)n4)c(C(C)(C)O)cc3n2)CC1` (stereo partly drawn), the IC50 at Protein cereblon is 91 nM; in the data set with OCI-Ly10, greater than 1000 nM. Besides, in [10], the Papp A→B at 2 h, 1 µM was 1.3 ×10⁻⁶ cm/s. Also, the half-maximal degradation concentration (DC50) was 20 nM in [2] and greater than 1000 nM at Cereblon/Ikaros [7]. Moreover, on Cereblon/Ikaros [17], the Emax is 40%. Moreover, the Kd in data set [18] is 0.14 nM.
As for `CC(C)(O)c1cc2nc([C@H]3CC[C@H](CN4CC5(CC(CCNc6cccc7c6C(=O)N([C@H]6CCC(=O)NC6=O)C7=O)C5)C4)CC3)sc2cc1NC(=O)c1cccc(C(F)(F)F)n1`, the Drug uptake in data set [1] worked out at 52%; in data set [5], 57%. This compound also displayed an IC50 on Protein cereblon of 3 nM. The DC50 stood at 6.3 nM in [2] and 2 nM on Cereblon/Ikaros [7]. The half-life in data set [3] came out at 2.15 h; in data set [4] it was 4.03 h; in data set [6] it was 2.58 h; in data set [8], 3.35 h.
In [9], `COc1cc2nc([C@H]3CC[C@H](CN4CC5(CC(CCNc6cccc7c6C(=O)N(C6CCC(=O)NC6=O)C7=O)C5)C4)CC3)oc2cc1NC(=O)c1cccc(C(F)(F)F)n1` (stereo partly drawn) had a half-life of 12 h. Besides, the Papp A→B at 2 h, 1 µM in data set [10] came out at 0.34 ×10⁻⁶ cm/s. Also, the half-maximal degradation concentration (DC50) in data set [2] turned out to be 190 nM; at Cereblon/Ikaros [7], 6 nM. In [19], this compound came in with a bioavailability of 10%. Moreover, the Emax in data set [20] stood at 68%. Further, the results for the microsomal CLint at 1 µM in data set [12] and in data set [16] were 2.9 µL/min/mg and 3.9 µL/min/mg, respectively. Moreover, the Vd in data set [13] worked out at 9.6 L/kg. The compound also showed a clearance in data set [14] of 9.4 mL/min/kg. In the data set with OCI-Ly10, this compound returned a half-maximal inhibitory concentration (IC50) of 53 nM. The area under the curve (AUC) in data set [21] worked out at 0.5 µM·h.
Turning to `CN(CCCOc1cccc2c1CN(C1CCC(=O)NC1=O)C2=O)C[C@H]1CC[C@H](n2cc3cc(NC(=O)c4cccc(C(F)(F)F)n4)c(C(C)(C)O)cc3n2)CC1` (stereo partly drawn), the Papp A→B at 2 h, 1 µM in data set [10] was found to be 4.8 ×10⁻⁶ cm/s. Also, the DC50 is 5 nM in [2] and greater than 500 nM at Cereblon/Ikaros [7]. Also, in [20], the maximal effect (Emax) is 80%. The microsomal CLint at 1 µM in data set [12] was determined as 44 µL/min/mg; in data set [16], 19 µL/min/mg. In the data set with OCI-Ly10, this compound yielded a half-maximal inhibitory concentration (IC50) of 235 nM. Moreover, the Kd in data set [18] was determined as 0.22 nM.
